One assay concerns HeLa. In words: Cytotoxicity in human HeLa cells assessed as reduction in cell viability incubated for 3 days by MTT assay. Type of assay: functional, cell-based. Conditions: for IC50: hela; for pIC50: Homo sapiens, HeLa, 72 h, read-out: IC50; call rule not given here. On the technique in general: Tetrazolium assays rely on reduction of a dye to a coloured formazan, in cell work by metabolically active cells.

A further assay concerns NCM460. In words: Cytotoxicity in human NCM460 cells assessed as reduction in cell viability incubated for 3 days by MTT assay. Conditions: for IC50: ncm460. Type of assay: cell-based.
A further assay has as its system HepG2. In words: Cytotoxicity in human HepG2 cells assessed as reduction in cell viability incubated for 3 days by MTT assay. Type of assay: functional, cell-based. Conditions: for IC50: hepg2.
In the next assay the test system is A549. In words: Cytotoxicity in human A549 cells assessed as reduction in cell viability incubated for 3 days by MTT assay. Type of assay: functional, cell-based. Conditions: for IC50: a549.
In the next assay the test system is MCF7. In words: Cytotoxicity in human MCF7 cells assessed as reduction in cell viability incubated for 3 days by MTT assay. It is filed as functional, cell-based. Conditions: for IC50: mcf7.

pIC50: −log10 of the molar value.

As for `C=CC(C)(C)[C@@]12Nc3cc4c(cc3[C@]1(O)C[C@]1(O)C(=O)N3CCC[C@H]3C(=O)N21)C=CC(C)(C)O4`, the IC50 entry in the assay with HeLa is recorded as “Not Active”; in the assay with NCM460, “Non-Toxic”; in the assay with HepG2, “Not Active”; with A549, “Not Active”; with MCF7, “Not Active”.

With `C=CC(C)(C)[C@@]12Nc3cc4c(cc3[C@]1(O)C[C@H]1C(=O)N3CCC[C@H]3C(=O)N12)C=CC(C)(C)O4`, the IC50 entry is recorded as “Not Active” in the assay on HeLa; “Non-Toxic” in the assay with NCM460; “Not Active” with HepG2; “Not Active” in the assay with A549; “Not Active” in the assay on MCF7.

One may read the pIC50 as the negative decadic logarithm of the IC50, by convention in mol/L. Consider `C=CC(C)(C)c1[nH]c2cc3c(cc2c1C=O)C=CC(C)(C)O3`, for which the pIC50 in the assay on HeLa is 5.19. For the same molecule, the IC50 result in the assay with NCM460 is recorded as “Non-Toxic”; in the assay on HepG2 it was “Not Active”; in the assay with A549, “Not Active”; in the assay on MCF7, “Not Active”.

For `C=CC(C)(C)[C@]1(C[C@@H]2NC(=O)[C@@H]3CCCN3C2=O)C(=O)Nc2cc3c(cc21)C=CC(C)(C)O3`, the IC50 entry in the assay on HeLa is recorded as “Not Active”; with NCM460 it was “Non-Toxic”; in the assay on HepG2, “Not Active”; in the assay on A549, “Not Active”; with MCF7 it was “Not Active”.

As for `C=CC(C)(C)[C@@]12Nc3cc4c(cc3[C@]1(O)C[C@]1(NC(=O)[C@H]3CCCN3C1=O)O2)C=CC(C)(C)O4`, in the assay with HeLa, the pIC50 was 5.14. The IC50 entry is “Non-Toxic” in the assay with NCM460, “Not Active” in the assay on HepG2, “Not Active” with A549 and “Not Active” in the assay on MCF7.

Consider `C=CC(C)(C)[C@]1(C[C@]2(OC)NC(=O)[C@@H]3CCCN3C2=O)C(=O)Nc2cc3c(cc21)C=CC(C)(C)O3`, for which the IC50 result was “Not Active” in the assay on HeLa; “Non-Toxic” in the assay with NCM460; “Not Active” in the assay on HepG2; “Not Active” with A549; “Not Active” with MCF7.

With `C=CC(C)(C)[C@@]1(C[C@@H]2NC(=O)[C@@H]3CCCN3C2=O)C(=O)Nc2cc3c(cc21)C=CC(C)(C)O3`, the IC50 result in the assay with HeLa is “Not Active”; in the assay with NCM460, “Non-Toxic”; with HepG2, “Not Active”; with A549, “Not Active”; with MCF7 it was “Not Active”.

Regarding `C=CC(C)(C)[C@]1(CC2NC(=O)C3(O)CCCN3C2=O)C(=O)Nc2cc3c(cc21)C=CC(C)(C)O3` (stereo not given in full), the IC50 entry is “Not Active” with HeLa; “Non-Toxic” in the assay with NCM460; “Not Active” in the assay with HepG2; “Not Active” in the assay on A549; “Not Active” in the assay on MCF7.

Consider `C=CC(C)(C)[C@]1(CC2(O)NC(=O)C3CCCN3C2=O)C(=O)Nc2cc3c(cc21)C=CC(C)(C)O3` (stereo not given in full), for which the IC50 entry is reported as “Not Active” with HeLa; “Non-Toxic” with NCM460; “Not Active” with HepG2; “Not Active” in the assay with A549; “Not Active” in the assay with MCF7.

For the molecule `CC(=O)O[C@H]1C(=O)[C@@]2(C)[C@H]([C@H](OC(=O)c3ccccc3)[C@]3(O)C[C@H](OC(=O)[C@H](O)[C@@H](NC(=O)c4ccccc4)c4ccccc4)C(C)=C1C3(C)C)[C@]1(OC(C)=O)CO[C@@H]1C[C@@H]2O` [PACLITAXEL], the pIC50 is above 8.10 in the assay on HeLa; above 8.10 in the assay with NCM460 (Homo sapiens, NCM460, 72 h, read-out: IC50); above 8.10 in the assay with HepG2 (Homo sapiens, HepG2, 72 h, read-out: IC50); above 8.10 in the assay with A549 (Homo sapiens, A549, 72 h, read-out: IC50); above 8.10 with MCF7 (Homo sapiens, MCF7, 72 h, read-out: IC50).

The record behind these values is ChEMBL document CHEMBL4340579, “HPLC-DAD-Directed Isolation of Linearly Fused Prenylated Indole Alkaloids from a Soil-Derived Aspergillus versicolor” (J Nat Prod, 2019).
